Test results published in US10111900B2, “β-glucan methods and compositions that affect the tumor microenvironment” (Biothera, Inc., priority 2014, dated 2018).
Entries after “also recorded” stand apart in the source; their conditions may differ.

Key:
M1 macrophages = test: Flow cytometry of M1/M2 markers on M1 macrophages derived from β-glucan-treated whole blood; type: cell-based, human
Protocol: CD14^+ monocytes from human whole blood were enriched using Ficoll gradient and magnetic bead separation. […] T cell proliferation was measured at the end of the experiment (day 9-day 11) by flow cytometry, and results are graphically shown as CFSE-dilution peaks. […] Quantitative results were reported as the Division Index (the average number of cell divisions a population underwent) calculated for each of the triplicate wells in each of the culture conditions. […]
(§1) Expression of a panel of markers was evaluated by flow cytometry for vehicle- and β-glucan-treated, high binder-derived M1 and M2 macrophages (CD163 was evaluated twice).
(§2) CD163 and CD86 were evaluated by flow cytometry for vehicle- and β-glucan-treated, low binder-derived M1 and M2 macrophages.

IL-4 = IL-4 in supernatants of macrophage and CD4 T cell co-cultures; type: cell-based, human; conditions: M2 macrophage and CD4 T cell co-cultures
Protocol: CD14^+ monocytes from human whole blood were enriched using Ficoll gradient and magnetic bead separation. Enriched monocytes (5×10^5 cells per mL) were then cultured in either M1-polarizing (XVivo 10 media (Lonza Group) supplemented with 5% autologous serum and 100 ng/mL recombinant human granulocyte macrophage colony-stimulating factor (rhGM-CSF) (R&D Systems) or M2-polarizing (XVivo 10 media supplemented with 10% autologous serum and 50 ng/mL recombinant human macrophage colony-stimulating factor (rhM-CSF) (R&D Systems) conditions for 6 days. In experiments performed to evaluate the effect of β-glucan, whole blood was first incubated with vehicle (sodium citrate buffer) or 25 μg/mL soluble β-glucan for 2 hours at 37° C. and then the monocytes were isolated and differentiated. Morphology was checked before macrophages were harvested for phenotypic analysis. […] T cell proliferation was measured at the end of the experiment (day 9-day 11) by flow cytometry, and results are graphically shown as CFSE-dilution peaks. […] Quantitative results were reported as the Division Index (the average number of cell divisions a population underwent) calculated for each of the triplicate wells in each of the culture conditions. […]
Modulation of IFN-γ and IL-4 production of vehicle- and β-glucan-treated M2 macrophages was then evaluated. […]

CD4 and CD8 T cells = test: Allogeneic mixed lymphocyte reaction with mMoDC; type: cell-based, human; conditions: β-glucan-treated mMoDC from high binders
Tregs = test: Treg suppression assay; type: cell-based, human
Protocol: Since these PBMC cultures contain Tregs, the suppressive ability of Tregs seem to be altered in the presence of soluble β-glucan and studies were carried out to determine if β-glucan affected Treg suppression. Plasma from β-glucan-treated or vehicle-treated whole blood (described above) was added to 25,000 isolated CFSE-labeled autologous CD4 T cells (CD4^+CD25^−) along with increasing numbers of isolated autologous Tregs (CD4^+CD25^+) resulting in wells with increasing ratios. Cells were then stimulated with 50,000 T cell activating CD3/28 beads for 3 days. Proliferation was subsequently measured by CFSE dilution and quantified by Division Index, which was used to calculate the % suppression of Tregs in the co-culture. % suppression=100-(Division Index of Treg well/Division Index of 1:0 well)[…].
The Treg suppression assay was conducted as described above, and after 3 days of co-culture, supernatants were analyzed for IFN-gamma production.

CD33+ MDSC = test: MDSC in peripheral blood of a case study subject treated with IMPRIME PGG; type: in vivo, human; conditions: within hours post-infusion, cycle 8, day 1
Source text: Blood was drawn at various times from a case study subject undergoing treatment with IMPRIME PGG and analyzed for the presence of MDSC. The first blood draw was done pre-infusion, cycle 8, day 1. […] A second blood draw was done post-infusion, cycle 8, day 1. […] The last blood sample was drawn pre-infusion, cycle 8, day 15. The CD33^+ MDSC are again present in the peripheral blood.

CD4 T cells [1] = test: Mac-CD4 T cell proliferation assay (CFSE dilution); type: cell-based, human
CD4 T cells [2] = test: Mac-CD4 T co-culture, surface marker modulation on T cells; type: cell-based, human; conditions: T cells co-cultured with β-glucan-treated vs vehicle-treated M2 macrophages
Protocol: For evaluation of Mac-CD4 T cell surface marker modulation, M2 macrophages were co-cultured with T cells as described above and cells were harvested on day 8, day 9 and day 10 to perform surface receptor staining on both M2 macrophages and T cells.
Changes in surface marker expression on both macrophages and CD3 & CD28-stimulated T cells were also measured. Vehicle- and β-glucan-treated M2 macrophages and CD T cells from the co-cultures were evaluated by flow cytometry for the modulation of co-stimulatory or co-inhibitory molecules. FIG. 8C and Table 9 are representative results from 2 different experiments.

IFN-γ = IFN-γ in supernatants of macrophage and CD4 T cell co-cultures (ELISA); type: cell-based, human
Protocol: (§3) CD14^+ monocytes from human whole blood were enriched using Ficoll gradient and magnetic bead separation. Enriched monocytes (5×10^5 cells per mL) were then cultured in either M1-polarizing (XVivo 10 media (Lonza Group) supplemented with 5% autologous serum and 100 ng/mL recombinant human granulocyte macrophage colony-stimulating factor (rhGM-CSF) (R&D Systems) or M2-polarizing (XVivo 10 media supplemented with 10% autologous serum and 50 ng/mL recombinant human macrophage colony-stimulating factor (rhM-CSF) (R&D Systems) conditions for 6 days. In experiments performed to evaluate the effect of β-glucan, whole blood was first incubated with vehicle (sodium citrate buffer) or 25 μg/mL soluble β-glucan for 2 hours at 37° C. and then the monocytes were isolated and differentiated. Morphology was checked before macrophages were harvested for phenotypic analysis. Culture medium of the day 6 macrophage culture (MCM) was collected, spun down to remove contaminated cell pellet and then frozen down for subsequent cytokine analysis by ELISA or used to setup a co-culture with CD3 & CD28-stimulated CD4 T cells (MCM-CD4 T) for evaluation of either surface markers or CD4 T cell proliferation. The macrophages were used to setup a co-culture with CD3 & CD28- or CD3 only-stimulated CD4 T cells (Mac-CD4 T) on day 6 for evaluation of either surface marker modulation or effect on CD4 T cell proliferation. For Mac-CD4 T cell proliferation study, M1 or M2 macrophages were cultured with CD3 & CD28- or CD3 only-stimulated, CFSE-labeled, autologous CD4 T cells at a 1:10 ratio. T cell proliferation was measured at the end of the experiment (day 9-day 11) by flow cytometry, and results are graphically shown as CFSE-dilution peaks. The assessment of CD3-only stimulated T cells was always done on day 11. Quantitative results were reported as the Division Index (the average number of cell divisions a population underwent) calculated for each of the triplicate wells in each of the culture conditions. Culture supernatants of Mac-CD4 T cell co-cultures were collected for subsequent cytokine analysis.
The culture supernatants from the CFSE dilution T-cell proliferation assay (FIG. 2B) were also measured for IFN-gamma levels by ELISA. […] Thus, β-glucan affects M2 to M1 repolarization and drives anti-tumorigenic Th1 polarization.
M2 macrophages from 4 high binders and 4 low binders were prepared and evaluated for their ability to modulate CD4 T cell proliferation. The supernatants from the various CD4 T cell proliferation conditions were measured for IFN-γ by ELISA. Results shown in FIG. 10 are representative from 4 different experiments. Fold change over the IFN-γ levels produced in the co-cultures of vehicle-treated M2 macrophages and CD4 T cells are plotted for each of the 4 donors.

M2 macrophages = test: Flow cytometry of M1/M2 markers on M2 macrophages derived from β-glucan-treated whole blood; type: cell-based, human; conditions: for expression of CD163: M2 macrophages, vs vehicle
Protocol: as §3
M1 and M2 macrophages from vehicle- or […] whole blood were prepared as described above. […] In addition, surface expression of CD86 was enhanced as well as both protein and mRNA levels of PD-L1 (FIG. 2B).
as §1, §2

[3] = β-glucan-treated M2 macrophages vs vehicle

β(1,6)-[poly-(1,3)-D-glucopyranosyl]-poly-β(1,3)-D-glucopyranose [β-glucan]
CD163 (2) median MFI (M1 macrophages; M1 macrophages, high binder): 230 | M1 macrophage phenotype (M1/M2-specific markers) (M1 macrophages; β-glucan pretreatment vs vehicle): did not affect | production of IL-4 (IL-4): no change | immunogenicity in allo-MLR (CD4 and CD8 T cell expansion) (CD4 and CD8 T cells; over low binders): increased immunogenicity | IFN-γ production (CD4 and CD8 T cells; over low binders and vehicle): able to modulate IFN-γ production | IFN-gamma production (Tregs; Treg suppression assay, 3 days, 8:1 T cell to Treg ratio): enhanced IFN-gamma production | suppressive capacity of Tregs (Tregs; plasma from β-glucan-treated vs vehicle-treated whole blood): significant decreases | CD33+ MDSC in peripheral blood (CD33+ MDSC): transiently disappear | CD4 T cell proliferation (CD4 T cells [1]; M1 macrophages, high binders or low binders, vs vehicle): no differences | CD4 T cell proliferation (CD4 T cells [1]; M2 macrophages cultured in TCM and M2a macrophages cultured in IL-4, vs vehicle): maintained the ability to enhance | CD4 T cell proliferation (CD4 T cells [1]; M2 macrophages, absence of exogenous CD28 antibody (CD3 only)): significantly higher ability to enhance | CD4 T cell proliferation (CD4 T cells [1]; M2 macrophages, high binders, CD3 & CD28-stimulated, vs vehicle): significantly higher ability to enhance | CD4 T cell proliferation (CD4 T cells [1]; M2 macrophages, low binders, vs vehicle): neither enhanced CD4 T cell proliferation; also recorded: no enhanced proliferation | CD4 T cell proliferation (CD4 T cells [1]; co-culture with β-glucan-treated M2 macrophages, CD3 and CD28-stimulated): enhance CD4 T cell proliferation | Change in MFI on T cells: 4-1BB (CD4 T cells [2]): No change | Change in MFI on T cells: CD28 (CD4 T cells [2]): No change | Change in MFI on T cells: CD40L (CD4 T cells [2]): No change | Change in MFI on T cells: CTLA-4 (CD4 T cells [2]): No change | Change in MFI on T cells: PD1 (CD279) (CD4 T cells [2]; day 9): Increased expression; also recorded: Increase | production of IFN-γ (IFN-γ; M2 in TCM / M2a in IL-4 co-cultured with CD4 T cells): significantly increased production | production of IFN-γ (IFN-γ; M2 macrophage and CD4 T cell co-cultures, high binders): significantly increased production | production of IFN-γ (IFN-γ; M2 macrophages and CD4 T cells, cell-to-cell contact study): significantly increased production | production of IFN-γ (IFN-γ; low binder crossed-over with high binder's serum): significantly increased production | IFN-gamma production (IFN-γ; supernatants of M2 macrophage and CD4 T cell co-culture): concomitant increase | expression of CD163 (M2 macrophages; high binders): lower expression | expression of CD163 (M2 macrophages; low binders): remained the same | mean fluorescence intensity (MFI) of CD163 (M2 macrophages; [3]): downmodulated | protein and mRNA levels of PD-L1 (M2 macrophages; [3]): enhanced | surface expression of CD86 (M2 macrophages; [3]): enhanced
